Measured values reported in patent US20190322676A1, “CERAMIDE GALACTOSYLTRANSFERASE INHIBITORS FOR THE TREATMENT OF DISEASE” (BioMarin Pharmaceutical Inc., priority 2016, published 2019).
Structures can show the parent of a compound that is named as a salt.

target: T1, human CGT (ceramide galactosyltransferase), CHO/CGT lysate (Homo sapiens, UniProt Q16880); test: CGT enzyme assay, RapidFire/MS/MS readout (Table 1 ranges with one asterisk *); assay type: biochemical; settings: RapidFire method (range with one asterisk *)
T1 construct: Full-length human CGT cDNA was cloned into the BamH1/Xho1 site of pcDNA3.1 (+); expressed in transfected cells; host or cells: Chinese hamster ovary (CHO) cells; lysate prepared with M-PER
T1 sequence (Q16880 21-541): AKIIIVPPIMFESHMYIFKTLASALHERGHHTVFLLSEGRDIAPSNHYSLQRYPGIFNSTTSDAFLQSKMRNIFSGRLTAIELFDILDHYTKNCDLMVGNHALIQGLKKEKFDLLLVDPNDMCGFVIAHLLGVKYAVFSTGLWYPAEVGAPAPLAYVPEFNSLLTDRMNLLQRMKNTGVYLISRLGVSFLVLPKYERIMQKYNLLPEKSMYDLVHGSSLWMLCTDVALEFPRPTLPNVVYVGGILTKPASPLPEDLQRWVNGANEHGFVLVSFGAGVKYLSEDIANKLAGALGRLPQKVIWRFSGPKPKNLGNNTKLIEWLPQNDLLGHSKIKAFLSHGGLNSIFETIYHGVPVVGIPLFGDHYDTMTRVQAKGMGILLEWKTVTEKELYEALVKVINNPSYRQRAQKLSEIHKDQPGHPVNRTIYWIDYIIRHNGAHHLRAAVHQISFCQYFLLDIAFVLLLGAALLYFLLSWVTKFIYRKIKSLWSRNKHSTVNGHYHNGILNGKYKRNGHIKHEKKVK
Procedure, shortened: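 IC50s come from variable-slope dose-response fits of internal-standard-normalized C6-NBD-dihydro-galactosylceramide, measured by RapidFire/MS/MS (ESI negative). Reactions: 1 h, 37 °C, human CGT-expressing CHO lysate (4 μg), 0.001–50 μM compound, 10 μM NBD-dihydro-ceramide, 17.5 μM UDP-galactose, 0.5% DMSO, pH 7.2; 0.01% Tween 80 added for ** values.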

Compound	IC50 [µM]
CN([C@H](C(=O)N1C2CCC1CC(N)C2)C(F)(F)c1ccc(C(F)(F)F)cc1)S(=O)(=O)c1ccc2cc(OC3CCCC3)ccc2c1 (stereo partly drawn) [Compound 73-1, N-((2R)-3-(3-amino-8-azabicyclo[3.2.1]octan-8-yl)-1,1-difluoro-3-oxo-1-(4-(trifluoromethyl)phenyl)propan-2-yl)-6-(cycyclopentyloxy)-N-methylnaphthalene-2-sulfonamide]	< 1
CN([C@@H](C(=O)N1C2CCC1CC(N)C2)C(F)(F)c1ccc(C(F)(F)F)cc1)S(=O)(=O)c1ccc2cc(OC3CCCC3)ccc2c1 (stereo partly drawn) [Compound 73-2, N-((2S)-3-(3-amino-8-azabicyclo[3.2.1]octan-8-yl)-1,1-difluoro-3-oxo-1-(4-(trifluoromethyl)phenyl)propan-2-yl)-6-(cyclopentyloxy)-N-methylnaphthalene-2-sulfonamide]	1 to 10
NC1CC2CCC(C1)N2C(=O)[C@@H](NS(=O)(=O)c1ccc2c(cnn2CC2CCCC2)c1)C(F)(F)c1ccc(Br)cc1 (stereo partly drawn) [Compound 74-1, N-((2R)-3-(3-amino-8-azabicyclo[3.2.1]octan-8-yl)-1-(4-bromophenyl)-1,1-difluoro-3-oxopropan-2-yl)-1-(cyclopentylmethyl)-1H-indazole-5-sulfonamide]	1 to 10
NC1CC2CCC(C1)N2C(=O)[C@H](NS(=O)(=O)c1ccc2c(cnn2CC2CCCC2)c1)C(F)(F)c1ccc(Br)cc1 (stereo partly drawn) [Compound 74-2, N-((2S)-3-(3-amino-8-azabicyclo[3.2.1]octan-8-yl)-1-(4-bromophenyl)-1,1-difluoro-3-oxopropan-2-yl)-1-(cyclopentylmethyl)-1H-indazole-5-sulfonamide]	30 to 100
CN([C@H](C(=O)N1C2CCC1CC(N)C2)C(F)(F)c1ccc(Br)cc1)S(=O)(=O)c1ccc2c(cnn2CC2CCCC2)c1 (stereo partly drawn) [Compound 75-1, N-((2R)-3-(3-amino-8-azabicyclo[3.2.1]octan-8-yl)-1-(4-bromophenyl)-1,1-difluoro-3-oxopropan-2-yl)-1-(cyclopentylmethyl)-N-methyl-1H-indazole-5-sulfonamide]	1 to 10
CN([C@@H](C(=O)N1C2CCC1CC(N)C2)C(F)(F)c1ccc(Br)cc1)S(=O)(=O)c1ccc2c(cnn2CC2CCCC2)c1 (stereo partly drawn) [Compound 75-2, N-((2S)-3-(3-amino-8-azabicyclo[3.2.1]octan-8-yl)-1-(4-bromophenyl)-1,1-difluoro-3-oxopropan-2-yl)-1-(cyclopentylmethyl)-N-methyl-1H-indazole-5-sulfonamide]	30 to 100
CC(C)N([C@H](C(=O)N1C2CCC1CC(N)C2)C(F)(F)c1ccc(Br)cc1)S(=O)(=O)c1ccc2cc(OC3CCCC3)ccc2c1 (stereo partly drawn) [Compound 76-1, N-((2R)-3-(3-amino-8-azabicyclo[3.2.1]octan-8-yl)-1-(4-bromophenyl)-1,1-difluoro-3-oxopropan-2-yl)-6-(cyclopentyloxy)-N-isopropylnaphthalene-2-sulfonamide]	10 to 30
CC(C)N([C@@H](C(=O)N1C2CCC1CC(N)C2)C(F)(F)c1ccc(Br)cc1)S(=O)(=O)c1ccc2cc(OC3CCCC3)ccc2c1 (stereo partly drawn) [Compound 76-2, N-((2S)-3-(3-amino-8-azabicyclo[3.2.1]octan-8-yl)-1-(4-bromophenyl)-1,1-difluoro-3-oxopropan-2-yl)-6-(cyclopentyloxy)-N-isopropylnaphthalene-2-sulfonamide]	30 to 100
NC1CC2CCC(C1)N2C(=O)[C@@H](NS(=O)(=O)c1ccc2nn(CC3CCCC3)cc2c1)C(F)(F)c1ccc(Br)cc1 (stereo partly drawn) [Compound 77-1, N-((2R)-3-(3-amino-8-azabicyclo[3.2.1]octan-8-yl)-1-(4-bromophenyl)-1,1-difluoro-3-oxopropan-2-yl)-2-(cyclopentylmethyl)-2H-indazole-5-sulfonamide]	1 to 10
NC1CC2CCC(C1)N2C(=O)[C@H](NS(=O)(=O)c1ccc2nn(CC3CCCC3)cc2c1)C(F)(F)c1ccc(Br)cc1 (stereo partly drawn) [Compound 77-2, N-((2S)-3-(3-amino-8-azabicyclo[3.2.1]octan-8-yl)-1-(4-bromophenyl)-1,1-difluoro-3-oxopropan-2-yl)-2-(cyclopentylmethyl)-2H-indazole-5-sulfonamide]	30 to 100
CN([C@H](C(=O)N1C2CCC1CC(N)C2)C(F)(F)c1ccc(Br)cc1)S(=O)(=O)c1ccc2nn(CC3CCCC3)cc2c1 (stereo partly drawn) [Compound 78-1, N-((2R)-3-(3-amino-8-azabicyclo[3.2.1]octan-8-yl)-1-(4-bromophenyl)-1,1-difluoro-3-oxopropan-2-yl)-2-(cyclopentylmethyl)-N-methyl-2H-indazole-5-sulfonamide]	1 to 10
CN([C@@H](C(=O)N1C2CCC1CC(N)C2)C(F)(F)c1ccc(Br)cc1)S(=O)(=O)c1ccc2nn(CC3CCCC3)cc2c1 (stereo partly drawn) [Compound 78-2, N-((2S)-3-(3-amino-8-azabicyclo[3.2.1]octan-8-yl)-1-(4-bromophenyl)-1,1-difluoro-3-oxopropan-2-yl)-2-(cyclopentylmethyl)-N-methyl-2H-indazole-5-sulfonamide]	30 to 100
CCCCOc1ccc(C(F)(F)[C@@H](C(=O)N2C3CCC2CC(N)C3)N(C)S(=O)(=O)c2ccc(OCC3CCCCC3)cc2)cc1 (stereo partly drawn) [Compound 79-1, N-((2R)-3-(3-amino-8-azabicyclo[3.2.1]octan-8-yl)-1-(4-butoxyphenyl)-1,1-difluoro-3-oxopropan-2-yl)-4-(cyclohexylmethoxy)-N-methylbenzenesulfonamide]	1 to 10
CCCCOc1ccc(C(F)(F)[C@H](C(=O)N2C3CCC2CC(N)C3)N(C)S(=O)(=O)c2ccc(OCC3CCCCC3)cc2)cc1 (stereo partly drawn) [Compound 79-2, N-((2S)-3-(3-amino-8-azabicyclo[3.2.1]octan-8-yl)-1-(4-butoxyphenyl)-1,1-difluoro-3-oxopropan-2-yl)-4-(cyclohexylmethoxy)-N-methylbenzenesulfonamide]	1 to 10
CCCCOc1ccc(C(F)(F)[C@H](NS(=O)(=O)c2ccc3cc(OC4CCCC4)ccc3c2)C(=O)N2CCC(N)CC2)cc1 [Compound 80-1, (R)—N-(3-(4-aminopiperidin-1-yl)-1-(4-butoxyphenyl)-1,1-difluoro-3-oxopropan-2-yl)-6-(cyclopentyloxy)naphthalene-2-sulfonamide]	< 1
CCCCOc1ccc(C(F)(F)[C@@H](NS(=O)(=O)c2ccc3cc(OC4CCCC4)ccc3c2)C(=O)N2CCC(N)CC2)cc1 [Compound 80-2, (S)—N-(3-(4-aminopiperidin-1-yl)-1-(4-butoxyphenyl)-1,1-difluoro-3-oxopropan-2-yl)-6-(cyclopentyloxy)naphthalene-2-sulfonamide]	1 to 10
CCCCOc1ccc(C(F)(F)[C@H](NS(=O)(=O)c2ccc(OCC3CCCCC3)cc2)C(=O)N2CCC(N)CC2)cc1 [Compound 81-1, (R)—N-(3-(4-aminopiperidin-1-yl)-1-(4-butoxyphenyl)-1,1-difluoro-3-oxopropan-2-yl)-4-(cyclohexylmethoxy)benzenesulfonamide trifluoroacetate]	1 to 10
CCCCOc1ccc(C(F)(F)[C@@H](NS(=O)(=O)c2ccc(OCC3CCCCC3)cc2)C(=O)N2CCC(N)CC2)cc1 [Compound 81-2, (S)—N-(3-(4-aminopiperidin-1-yl)-1-(4-butoxyphenyl)-1,1-difluoro-3-oxopropan-2-yl)-4-(cyclohexylmethoxy)benzenesulfonamide trifluoroacetate]	30 to 100
CCCCOc1ccc(C(F)(F)[C@H](NS(=O)(=O)c2ccc3cc(OC4CCCC4)ccc3c2)C(=O)N2C3CCC2CC(N)C3)cc1 (stereo partly drawn) [Compound 82-1, N-((2R)-3-(3-amino-8-azabicyclo[3.2.1]octan-8-yl)-1-(4-butoxyphenyl)-1,1-difluoro-3-oxopropan-2-yl)-6-(cyclopentyloxy)naphthalene-2-sulfonamide trifluoroacetate]	< 1
CCCCOc1ccc(C(F)(F)[C@@H](NS(=O)(=O)c2ccc3cc(OC4CCCC4)ccc3c2)C(=O)N2C3CCC2CC(N)C3)cc1 (stereo partly drawn) [Compound 82-2, N-((2S)-3-(3-amino-8-azabicyclo[3.2.1]octan-8-yl)-1-(4-butoxyphenyl)-1,1-difluoro-3-oxopropan-2-yl)-6-(cyclopentyloxy)naphthalene-2-sulfonamide trifluoroacetate]	1 to 10
CCCCOc1cccc(C(F)(F)[C@H](NS(=O)(=O)c2ccc3cc(OC4CCCC4)ccc3c2)C(=O)N2CCC(N)CC2)c1 [Compound 83-1, (R)—N-(3-(4-aminopiperidin-1-yl)-1-(3-butoxyphenyl)-1,1-difluoro-3-oxopropan-2-yl)-6-(cyclopentyloxy)naphthalene-2-sulfonamide trifluoroacetate]	< 1
CCCCOc1cccc(C(F)(F)[C@@H](NS(=O)(=O)c2ccc3cc(OC4CCCC4)ccc3c2)C(=O)N2CCC(N)CC2)c1 [Compound 83-2, (S)—N-(3-(4-aminopiperidin-1-yl)-1-(3-butoxyphenyl)-1,1-difluoro-3-oxopropan-2-yl)-6-(cyclopentyloxy)naphthalene-2-sulfonamide trifluoroacetate]	1 to 10
